Results on 27 compounds are retold here after patent US8580832B2, “Substituted phenoxy aminothiazolones as estrogen related receptor-α modulators” (Janssen Pharmaceutica N.V., priority 2007, dated 2013).

The test concerns the target T1, ERR1 (also known as ERR-α or ERR-1) (Homo sapiens, UniProt P11474).
T1 construct: the ^6His-tagged-ERR1 LBD
T1 sequence (P11474 193-421 limits assumed): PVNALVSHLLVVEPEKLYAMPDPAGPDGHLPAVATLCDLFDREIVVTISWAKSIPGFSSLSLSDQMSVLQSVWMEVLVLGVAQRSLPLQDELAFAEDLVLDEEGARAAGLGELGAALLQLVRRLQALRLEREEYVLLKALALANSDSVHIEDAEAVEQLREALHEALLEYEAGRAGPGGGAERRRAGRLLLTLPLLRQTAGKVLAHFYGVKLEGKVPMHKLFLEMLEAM
The experiment in a line: TR-FRET assay: disruption of co-activator peptide binding to ERR1 LBD. Type of test: biochemical. The following applies: 6His-tagged ERR1 LBD 6 nM, GST-SRC-2 peptide 6 nM, 25° C., 4-18 hours; average of 3 independent experiments. On the procedure:
Time-Resolved Fluorescence Resonance Energy Transfer (TR-FRET) experiments were performed to examine the functional response of ERR1 (also known as ERR-α or ERR-1) ligands. The TR-FRET assay described herein relied on the conformation of ERR1 for binding to a co-activator peptide: when a test compound binds to ERR1 and alters its conformation, it can disrupt the binding of the co-activator peptide. The components of this homogeneous secondary assay included: the ^6His-tagged-ERR1 LBD, a GST-labeled-hSRC2 co-activator polypeptide and a fluorescent donor/acceptor pair from CIS bio international htrf/bioassays (Bedford, Mass.) using both an α-GST Europium Cryptate (Eu) label and an α^6His-XL665 (allophycocyanin) fluorophore.
For TR-FRET measurements, the reaction was buffered in 25 mM Tris pH 8, 2.5 mM Hepes, 20 mM KCl, 1 mM DTT, and 0.05 mg/mL BSA (-lipids). […] Reactions were allowed to reach equilibrium at 25° C. for 4-18 hours before collecting data on the Analyst from LJL Biosystems (Molecular Devices Sunnyvale, Calif.). […] Dose response curves were fitted using a hyperbolic equation and the data reported is the average of 3 independent experiments.
In general terms: Time-resolved FRET reads energy transfer from a long-lived donor to a nearby acceptor.
Broadly, the EC50 is the midpoint of the concentration-response curve. As to `COc1cc(/C=C2\SC(NCc3nnn[nH]3)=NC2=O)ccc1Oc1ccc(C#N)cc1C(F)(F)F` [Example 107, 4-(2-Methoxy-4-{4-oxo-2-[(1H-tetrazol-5-ylmethyl)-amino]-4H-thiazol-5-ylidenemethyl}-phenoxy)-3-trifluoromethyl-benzonitrile], the EC50 came out at 0.005 µM.

The compound `COc1cc(/C=C2\SC(NCCCN(C)C)=NC2=O)ccc1Oc1ccc(C#N)cc1C(F)(F)F` [Compound 26, 4-{4-[2-(3-Dimethylamino-propylamino)-4-oxo-4H-thiazol-5-ylidenemethyl]-2-methoxy-phenoxy}-3-trifluoromethyl-benzonitrile] yielded an EC50 of 0.013 µM.

`COc1cc(/C=C2\SC(N(C)C)=NC2=O)ccc1Oc1ccc(C#N)cc1C(F)(F)F` [Example 81, 4-[4-(2-Dimethylamino-4-oxo-4H-thiazol-5-ylidenemethyl)-2-methoxy-phenoxy]-3-trifluoromethyl-benzonitrile] showed an EC50 of 0.017 µM.

As to `COc1cc(/C=C2\SC(N3CCC(N(C)C)CC3)=NC2=O)ccc1Oc1ccc(C#N)cc1C(F)(F)F` [Example 86, 4-{4-[2-(4-Dimethylamino-piperidin-1-yl)-4-oxo-4H-thiazol-5-ylidenemethyl]-2-methoxy-phenoxy}-3-trifluoromethyl-benzonitrile], the concentration for a half-maximal effect (EC50) was found to be 0.01 µM.

Regarding `CNC1=NC(=O)/C(=C/c2ccc(Oc3ccc(C#N)cc3C(F)(F)F)c(OC)c2)S1` [Example 77, 4-[2-Methoxy-4-(2-methylamino-4-oxo-4H-thiazol-5-ylidenemethyl)-phenoxy]-3-trifluoromethyl-benzonitrile], the midpoint of the response, the EC50, lay at 0.016 µM.

In turn, `COc1cc(/C=C2\SC(N(C)CCN)=NC2=O)ccc1Oc1ccc(C#N)cc1C(F)(F)F` [Example 37, 4-(4-{2-[(2-Amino-ethyl)-methyl-amino]-4-oxo-4H-thiazol-5-ylidenemethyl}-2-methoxy-phenoxy)-3-trifluoromethyl-benzonitrile] displayed an EC50 of 0.1 µM. Compared with the last compound, the EC50 is about 6.2-fold higher.

Turning to `O=C1N=C(NCCCN2CCCC2=O)S/C1=C\c1ccc(Oc2ccc(Cl)cc2C(F)(F)F)c(F)c1` [Example 67, 5-[4-(4-Chloro-2-trifluoromethyl-phenoxy)-3-fluoro-benzylidene]-2-[3-(2-oxo-pyrrolidin-1-yl)-propylamino]-thiazol-4-one], a half-maximal response (EC50) required 0.003 µM.

`COc1cc(/C=C2\SC(NCCN3CCCC3=O)=NC2=O)ccc1Oc1ccc(C#N)cc1Cl` [Example 63, 3-Chloro-4-(2-methoxy-4-{4-oxo-2-[2-(2-oxo-pyrrolidin-1-yl)-ethylamino]-4H-thiazol-5-ylidenemethyl}-phenoxy)-benzonitrile] returned an EC50 of 0.075 µM.

For the compound `COc1cc(/C=C2\SC(NCCN3CCNC(=O)C3)=NC2=O)ccc1Oc1ccc(C#N)cc1C(F)(F)F` [Example 105, 4-(2-Methoxy-4-{4-oxo-2-[2-(3-oxo-piperazin-1-yl)-ethylamino]-4H-thiazol-5-ylidenemethyl}-phenoxy)-3-trifluoromethyl-benzonitrile], the 50% effective concentration (EC50) came to 0.008 µM.

For `COc1cc(/C=C2\SC(N3CCNC(=O)C3)=NC2=O)ccc1Oc1ccc(C(F)(F)F)cc1C(F)(F)F` [Example 59, 4-{5-[4-(2,4-Bis-trifluoromethyl-phenoxy)-3-methoxy-benzylidene]-4-oxo-4,5-dihydro-thiazol-2-yl}-piperazin-2-one], the EC50 was 0.14 µM. This EC50 lies about 18-fold higher than the previous one.

In turn, `COc1cc(/C=C2\SC(N)=NC2=O)ccc1Oc1ccc(C#N)cc1Cl` [Compound 2, 4-[4-(2-Amino-4-oxo-4H-thiazol-5-ylidenemethyl)-2-methoxy-phenoxy]-3-chloro-benzonitrile] returned an EC50 of 0.21 µM.

For the compound `COc1cc(/C=C2\SC(N3CCCC(O)C3)=NC2=O)ccc1Oc1ccc(C(F)(F)F)cc1C(F)(F)F` (stereo not drawn) [Example 58, 5-[4-(2,4-Bis-trifluoromethyl-phenoxy)-3-methoxy-benzylidene]-2-(3-hydroxy-piperidin-1-yl)-thiazol-4-one], the concentration giving a half-maximal response (EC50) amounted to 0.024 µM.

`COc1cc(/C=C2\SC(NCc3cccnc3)=NC2=O)ccc1Oc1ccc(C#N)cc1C(F)(F)F` [Compound 19, 4-(2-Methoxy-4-{4-oxo-2-[(pyridin-3-ylmethyl)-amino]-4H-thiazol-5-ylidenemethyl}-phenoxy)-3-trifluoromethyl-benzonitrile]: the EC50 came to 0.018 µM.

`CC(C)c1ccccc1Oc1ccc(/C=C2\SC(N3CC(C(=O)O)C3)=NC2=O)cc1` [Example 118, 1-{5-[4-(2-Isopropyl-phenoxy)-benzylidene]-4-oxo-4,5-dihydro-thiazol-2-yl}-azetidine-3-carboxylic acid] returned an EC50 of 0.021 µM.

Compound `COc1cc(/C=C2\SC(NCCN3CCCC3=O)=NC2=O)ccc1Oc1ccc(C#N)cc1C(F)(F)F` [Example 36, 4-(2-Methoxy-4-{4-oxo-2-[2-(2-oxo-pyrrolidin-1-yl)-ethylamino]-4H-thiazol-5-ylidenemethyl}-phenoxy)-3-trifluoromethyl-benzonitrile] had an EC50 of 0.008 µM.

In turn, `COc1cc(/C=C2\SC(N3CCC(O)C3)=NC2=O)ccc1Oc1ccc(C#N)cc1C(F)(F)F` (stereo not drawn) [Example 39, 4-{4-[2-(3-Hydroxy-pyrrolidin-1-yl)-4-oxo-4H-thiazol-5-ylidenemethyl]-2-methoxy-phenoxy}-3-trifluoromethyl-benzonitrile] displayed an EC50 of 0.009 µM.

`CN1CCN(C2=NC(=O)/C(=C/c3ccc(Oc4ccc(C#N)cc4C(F)(F)F)c(F)c3)S2)CC1=O` [Example 43, 4-{2-Fluoro-4-[2-(4-methyl-3-oxo-piperazin-1-yl)-4-oxo-4H-thiazol-5-ylidenemethyl]-phenoxy}-3-trifluoromethyl-benzonitrile] had an EC50 of 0.022 µM.

On to `COc1cc(/C=C2\SC(N3CC(C(=O)O)C3)=NC2=O)ccc1Oc1ccccc1C(F)(F)F` [Example 119, 1-{5-[3-Methoxy-4-(2-trifluoromethyl-phenoxy)-benzylidene]-4-oxo-4,5-dihydro-thiazol-2-yl}-azetidine-3-carboxylic acid], for which the EC50 stood at 0.01 µM.

On to `O=C1CN(C2=NC(=O)/C(=C/c3ccc(Oc4ccc(Cl)cc4C(F)(F)F)c(F)c3)S2)CCN1` [Example 66, 4-{5-[4-(4-Chloro-2-trifluoromethyl-phenoxy)-3-fluoro-benzylidene]-4-oxo-4,5-dihydro-thiazol-2-yl}-piperazin-2-one], for which the 50% effective concentration (EC50) stood at 0.004 µM. Against the preceding compound, the EC50 is about 2.5-fold lower.

`COc1cc(/C=C2\SC(NCCn3ccnc3)=NC2=O)ccc1Oc1ccc(C#N)cc1C(F)(F)F` [Example 70, 4-{4-[2-(2-Imidazol-1-yl-ethylamino)-4-oxo-4H-thiazol-5-ylidenemethyl]-2-methoxy-phenoxy}-3-trifluoromethyl-benzonitrile] came in with an EC50 of 0.024 µM.

In the case of `CCOc1cc(/C=C2\SC(N3CCNC(=O)C3)=NC2=O)ccc1Oc1ccc(C#N)cc1C(F)(F)F` [Example 57, 4-{2-Ethoxy-4-[4-oxo-2-(3-oxo-piperazin-1-yl)-4H-thiazol-5-ylidenemethyl]-phenoxy}-3-trifluoromethyl-benzonitrile], the EC50 came to 0.039 µM. Compared with the last compound, the EC50 is about 1.6-fold higher.

Turning to `N#Cc1ccc(Oc2ccc(/C=C3\SC(N(CCO)CCO)=NC3=O)cc2F)c(C(F)(F)F)c1` [Example 41, 4-(4-{2-[Bis-(2-hydroxy-ethyl)-amino]-4-oxo-4H-thiazol-5-ylidenemethyl}-2-fluoro-phenoxy)-3-trifluoromethyl-benzonitrile], the EC50 turned out to be 0.018 µM. Against the preceding compound, the EC50 is about 2.2-fold lower.

In turn, `COc1cc(/C=C2\SC(NCCN3CCCC3=O)=NC2=O)ccc1Oc1ccc(Cl)cc1C(F)(F)F` [Example 60, 5-[4-(4-Chloro-2-trifluoromethyl-phenoxy)-3-methoxy-benzylidene]-2-[2-(2-oxo-pyrrolidin-1-yl)-ethylamino]-thiazol-4-one] came in with an EC50 of 0.004 µM.

In turn, `COC(=O)C1CCN(C2=NC(=O)/C(=C/c3ccc(Oc4ccc(C#N)cc4C(F)(F)F)c(OC)c3)S2)CC1` [Example 79, 1-{5-[4-(4-Cyano-2-trifluoromethyl-phenoxy)-3-methoxy-benzylidene]-4-oxo-4,5-dihydro-thiazol-2-yl}-piperidine-4-carboxylic acid methyl ester] had an EC50 of 0.025 µM. Against the preceding compound, the EC50 is about 6.2-fold higher.

`COC(=O)c1ccc(Oc2ccc(/C=C3\SC(N4CCCC(O)C4)=NC3=O)cc2OC)c(C(F)(F)F)c1` (stereo not drawn) [Example 53, 4-{4-[2-(3-Hydroxy-piperidin-1-yl)-4-oxo-4H-thiazol-5-ylidenemethyl]-2-methoxy-phenoxy}-3-trifluoromethyl-benzoic acid methyl ester] registered an EC50 of 0.042 µM.

In turn, `COC(=O)[C@H](CO)NC1=NC(=O)/C(=C/c2ccc(Oc3ccc(C#N)cc3C(F)(F)F)c(OC)c2)S1` [Example 68, 2-{5-[4-(4-Cyano-2-trifluoromethyl-phenoxy)-3-methoxy-benzylidene]-4-oxo-4,5-dihydro-thiazol-2-ylamino}-3-hydroxy-propionic acid methyl ester] had an EC50 of 0.019 µM.

On to `COc1cc(/C=C2\SC(NCc3ccoc3)=NC2=O)ccc1Oc1ccc(C#N)cc1C(F)(F)F` [Example 88, 4-(4-{2-[(Furan-3-ylmethyl)-amino]-4-oxo-4H-thiazol-5-ylidenemethyl}-2-methoxy-phenoxy)-3-trifluoromethyl-benzonitrile], for which the EC50 was 0.015 µM.
